Data from patent US6627211B1, “Transnasal anticonvulsive compositions and modulated process” (SK Corporation, priority 1999, dated 2003).

Columns and labels:
[1] = in vitro; details: for Mean Transnasal Flux: diazepam, 37° C., n = 2
Excerpt: The nasal mucous membrane used in these in vitro experiments was obtained from New Zealand White rabbits (2.5-3.0 kg). Rabbits were sacrificed by IV injection of phenobarbital. The nasal septum was carefully removed from a bone block using surgical scissors and a bone-cutting saw. Two pieces of nasal mucous membranes were then carefully stripped from the nasal septum without touching the center of the membrane surface and rinsed with normal saline solution. The mucosal membrane was mounted between two half-cells of a glass diffusion cell apparatus. The exposed area of the nasal membrane was approximately 0.64 cm^2. A test solution or suspension (3.5 ml) was introduced into the mucosal side of the membrane in the donor compartment while 3.5 ml of 10% ethanol, 40% propylene glycol, and 50% pH 7.4 isotonic phosphate buffer solution was added to the receptor compartment. The entire diffusion system was maintained at 37° C. throughout the experiment. At predetermined time intervals, 100 μl of the receptor solution was withdrawn for the assay and refilled with the same volume of fresh receptor medium to keep the volume constant. The steady-state flux value was determined from the slope of the straight line attained from the plot of the cumulative amount of drug permeated as a function of time. Each experiment was carried out in at least duplicate.
A high pressure liquid chromatographic system equipped with a multi-solvent delivery system (Model 600E, Waters Associates, Milford, Mass.), an auto-injector (Model 717 Plus, Waters Ass.), a photodiode array detector (Model 996, Waters Ass.), a reverse phase Symmetric C18 column (150 mm ×3.9 mm ID, 5 μm), and a Millenium 2010 software computer system was used in this study.
In these studies, a series of bile salts such as sodium cholate, sodium deoxycholate, sodium taurocholate, and sodium glycocholate, and a lecithin such as lysophosphatidylcholine were examined. The permeation rates were measured using the method described under the in vitro membrane permeation test method.
The permeation rates were determined utilizing the method described in Example 1.
The in vitro membrane permeation rates were measured using the test method described in Example 1.
Sample drug solutions (10 mg/ml) were prepared with the vehicle with and without the bile salt. The membrane permeation rates were measured in the use of the test method described in Example 1.
The in vitro permeation experiments were performed using the test method described in Example 1.

[2] = Bioavailability and pharmacokinetics of (S)-2-carbamoyloxyl-1-o-chlorophenylethanol preparations after IV and IN administration; format: in vivo; details: rabbits
Procedure: A formulation for IV injection was prepared by dissolving 15 mg (S)-2-carbamoyloxyl-1-o-chlorophenylethanol in 1 mL of 40% PEG 400 and 60% water and filtering through a sterile membrane filter under aseptic conditions. The formulations were administered to rabbits (n=2-4) at the two dosing levels of 2.5 mg/kg and 5 mg/kg in a manner analogous to that described in Example 7. A repeated dosing regimen at 5 minute intervals was also studied in the nasal application of the preparation of the invention. […] To the plasma sample, 50 μl of an internal standard solution (2-(2,6-dichlorophenyl)-2-carbamoyloxyethyl)oxocarboxamide-10 μg/ml) and 5 ml of methyl-butyl ether were added. The mixture was vortexed for 60 seconds and centrifuged at 3500 rpm for 10 minutes. […] The residue was reconstituted with 200 μl of deionized water. The (S)-2-carbamoyloxyl-1-o-chlorophenylethanol concentration in the plasma was determined by HPLC in the use of a mobile phase consisting of 20% acetonitrile and 80% water with a flow rate of 1 ml/minute and UV detection at 210 nm. The detection limit for (S)-2-carbamoyloxyl-1-o-chlorophenylethanol was 23 nmol/l. The pharmacokinetic parameters determined after IV and IN administration of (S)-2-carbamoyloxyl-1-o-chlorophenylethanol at two dose strengths are presented in Table VIII. […]

[3] = Bioavailability and pharmacokinetics of clonazepam preparations after IV and IN administration; details: rabbits
[4] = dogs, after the nasal administration; cited from earlier work
[5] = vehicle 30% ethanol, 60% propylene glycol, 10% water, initial drug concentration 5mg/ml

## NC(=O)OC[C@@H](O)c1ccccc1Cl [(S)-2-carbamoyloxyl-1-o-chlorophenylethanol]
[1]; New Zealand White, rabbit
  Papp at 5 mg/ml: 27.1 ×10⁻⁶ cm/s
[1]; New Zealand White, rabbit, 5 mg/ml
  Transnasal Flux: 487.6 μg/cm^2/hr
[2]; IN 5 mg/kg × 2 vs IV 5 mg/kg
  time at which plasma concentration after the second dosing exceeded the plasma level of a single IV injection: 30 min
[2]; second IN application 5 minutes after the first dosing, 5 mg/kg × 2
  Cmax and AUC0-240 minutes after the second intranasal application: doubled

## O=C1CN=C(c2ccccc2Cl)c2cc([N+](=O)[O-])ccc2N1 [Clonazepam, clonazepam]
[3]; after the first intranasal application
  time to initial peak plasma concentration: ≤ 2 min
[3]; first intranasal application 0.2 mg/kg
  peak plasma level relative to the IV injection: about 32%
[3]; third IN application at 5 minutes intervals, peak observed at 15 minutes
  peak plasma concentration after the third application compared with the single IV injection: nearly identical
[1]; New Zealand White, rabbit
  Papp at 5 mg/ml: 19.3 ×10⁻⁶ cm/s
[1]; [5]
  Transnasal Flux: 347.7 μg/cm^2/hr

## CN1C(=O)CN=C(c2ccccc2)c2cc(Cl)ccc21 [Diazepam, diazepam]
[1]; 10 mg/ml diazepam in 30% ethanol, 60% propylene glycol, 10% water with vs without 1% SGC (FIG. 3)
  increase in the steady-state flux when 1% sodium glycocholate is incorporated into the vehicle: approximately 50%
[1]; vehicle 1% Lysophosphotidylcholine/H2O
  Mean Transnasal Flux: 125.5 μg/cm^2/hr
[1]; vehicle 1% Sodium Cholate/H2O
  Mean Transnasal Flux: 66.3 μg/cm^2/hr
[1]; vehicle 1% Sodium Deoxycholate/H2O
  Mean Transnasal Flux: 74.9 μg/cm^2/hr
[1]; vehicle 1% Sodium Glycocholate/H2O
  Mean Transnasal Flux: 96.4 μg/cm^2/hr
[1]; vehicle 1% Sodium Taurocholate/H2O
  Mean Transnasal Flux: 87.0 μg/cm^2/hr
[1]; vehicle Water
  Mean Transnasal Flux: 79.5 μg/cm^2/hr
[1]; [5]
  Transnasal Flux: 246.0 μg/cm^2/hr

## Cc1nnc2n1-c1ccc(Cl)cc1C(c1ccccc1Cl)=NC2 [triazolam]
[4]
  time to maximum plasma concentration: 18 min
